Where a name gives a salt, the structure may show the parent alone. Read-outs that look alike come from different tables or passages of the source.
Assays:
[1] = tested on: stimulation evoked theta levels in dorsal hippocampus; test: Theta modulation in dorsal hippocampus of anesthetized rats; format: in vivo, male Wistar rats
Excerpt: Male Wistar rats (240-320 g) were anesthetized by intraperitoneal administration of urethane (1.2 to 1.5 g/kg) for implantation of a catheter in the left femoral vein. The animal was placed in a stereotaxic frame for implanting an electrode (stainless steel wire, Plastics One) into the dorsal hippocampus (AP, −3.8 mm; ML, +2.2 mm; DV, −2.5 mm; Paxinos and Watson, 2004). Bipolar stimulating electrode (untwisted stainless steel wires, separated by 0.75-1.0 mm at their tips, Plastics One) was implanted in the Nucleus Pontis Oralis (NPO; AP, −7.8 mm; ML, 1.8 mm; DV, −6.0 mm; Paxinos and Watson, 2004). Additionally one electrode was implanted into the cerebellum which served as a reference. Hippocampal θ rhythm was evoked via a 6-s electrical stimulation train (20-160 μA, 0.3-ms pulse duration, 250 Hz) delivered to the NPO at a rate of 0.01 trains/s with a Grass S88 stimulator and PSIU6 stimulus isolation unit (Grass Medical Instruments, Quincy, Mass.). EEG was recorded at a rate of 1000 Hz using Ponemah (Version 5.2) software and stored for off-line analysis using NeuroScore (Version 3.0). Baseline amplitude level was achieved by using the current required to elicit θ rhythm to 50% of the maximal amplitude under control conditions.
Power in the θ rhythm frequency in the stimulation period during the 30-min baseline period was calculated and the % changes in these measures post treatment were calculated. […] Statistical significance was considered at a p value less than 0.05.

[2] = tested on: extracellular levels of acetylcholine in medial prefrontal cortex; test: Acetylcholine modulation in medial prefrontal cortex (microdialysis); format: in vivo, male Wistar rats; conditions: for mean AUC of percent change in acetylcholine levels, combination compared to donepezil alone: test compound in combination with donepezil (1 mg/kg, s.c.)
Excerpt: Male Wistar rats (240-300 g body weight) were stereotaxically implanted with a microdialysis guide cannula in medial prefrontal cortex (mPFC; AP: +3.2 mm, ML: −0.5 mm, DV: −3.0 mm) under isoflurane anesthesia. Co-ordinates were taken according to atlas for the rat brain (Paxinos and Watson 2004) with reference points taken from bregma and vertical from the skull. The rats were allowed to recover individually for four days in a round bottom Plexiglas bowl with free access to feed and water.
After surgical recovery of 4 days, male Wistar rats were connected to dual quartz lined two-channel liquid swivel (Instech, UK) on a counter balance lever arm, which allowed unrestricted movements of the animal. Sixteen hours before start of the study, a pre-equilibrated microdialysis probe (2 mm dialysis membrane) was inserted into mPFC through the guide cannula. On the day of study, probe was perfused with artificial cerebrospinal fluid (aCSF; NaCl 147 mM, KCl2.7 mM, MgCl2 1 mM, CaCl2. 2H2O 1.2 mM, pH 7.4) at a flow rate of 1.5 μL/min and a stabilization period of 2 h was maintained. Five basal samples were collected at 20 min intervals prior to the treatment of test Compounds (3 or 10 mg/kg, p.o.) or vehicle. […] Dialysate samples were collected for an additional period of 4 h post treatment of test compounds. Dialysates were stored below −50° C. prior to analysis.
Acetylcholine concentrations in dialysates were quantified using LC-MS/MS based method.
All microdialysis data for acetylcholine was plotted as percent change from mean dialysate basal concentrations with 100% defined as the average of five pre-dose values. […] Statistical significance was considered at a p value less than 0.05. Incorrect probe placement was considered as criteria to reject the data from animal.

[3] = target: T1, Human histamine-3 receptor (Homo sapiens, UniProt Q9Y5N1); test: Determination of Ki value at human histamine-3 receptor (radioligand binding, [3H] R-α-methylhistamine)
T1 construct: expressed in transfected cells; host or cells: CHO cells
Protocol: Test compounds were evaluated according to the following procedures to determine the Ki value at human and rat histamine-3 receptor.
• Receptor source: Rat brain frontal cortex or recombinant human cDNA expressed in CHO cells • Radioligand: [3H] R-α-methylhistamine • Final ligand concentration: [3.0 nM] • Non-specific determinant: R-α-methylhistamine (100 μM) • Reference compound: R-α-methylhistamine • Positive control: R-α-methylhistamine Incubation Conditions:
Increasing concentrations of test compounds or standard were incubated with membrane receptors and radioligand in 5 mM MgC12 and 50 mM TRIS-HCl (pH 7.4) for 60 minutes at room temperature. The reaction was terminated by rapid vacuum filtration onto the glass fiber filters. Radioactivity trapped onto the filters was determined and compared to the control values in order to ascertain any interactions of the test compound(s) with either cloned human or rat receptor binding site.

[4] = Compound 1 (1 mg/kg, i.v.) in combination with donepezil (0.3 mg/kg, i.v.)
[5] = test compound (3 or 10 mg/kg, p.o.) in combination with donepezil (1 mg/kg, s.c.)

T1 sequence (Q9Y5N1 whole entry): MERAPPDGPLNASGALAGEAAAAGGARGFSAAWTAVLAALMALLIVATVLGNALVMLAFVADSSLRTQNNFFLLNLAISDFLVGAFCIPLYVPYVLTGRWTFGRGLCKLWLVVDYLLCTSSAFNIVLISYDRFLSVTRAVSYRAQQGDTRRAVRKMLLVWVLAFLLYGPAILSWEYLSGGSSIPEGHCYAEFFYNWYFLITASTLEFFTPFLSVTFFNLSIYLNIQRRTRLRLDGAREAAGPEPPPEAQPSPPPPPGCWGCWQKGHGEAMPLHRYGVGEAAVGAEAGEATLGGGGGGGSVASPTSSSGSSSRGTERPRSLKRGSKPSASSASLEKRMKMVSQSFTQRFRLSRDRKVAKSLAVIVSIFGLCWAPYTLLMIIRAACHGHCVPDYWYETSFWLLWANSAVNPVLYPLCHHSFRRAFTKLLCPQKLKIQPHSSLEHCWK

With O=C(CN1CCOCC1)Nc1ccc(OC2CCN(C3CCC3)CC2)cc1 [Compound 1, N-[4-(1-Cyclobutylpiperidin-4-yloxy)phenyl]-2-(morpholin-4-yl)acetamide dihydrochloride] the “mean AUC of theta power, combination compared to donepezil” value [1, 4] was “significantly higher”, the “peak theta power levels, % of pre-dose levels” value [1, 4] was 163±15 % of pre-dose levels and the “peak acetylcholine levels, % of pre-dose levels” value (from here on “peak acetylcholine levels, %”) [2, 5] was 1676±150 % of pre-dose levels. For the same compound, the “peak acetylcholine levels, %” value ([2]; test compound (3 or 10 mg/kg, p.o.) in combination with rivastigmine (0.5 mg/kg, s.c.)) was 1276±213 % of pre-dose levels, the “mean AUC of percent change in acetylcholine levels, combination compared to donepezil alone” value (shortened to “mean AUC of percent change … to donepezil alone”) [2] was “significantly higher” and the “mean AUC of percent change in acetylcholine levels, combination compared to rivastigmine alone” value ([2]; test compound in combination with rivastigmine (0.5 mg/kg, s.c.)) was “higher”.

In the case of O=C(CN1CCOCC1)Nc1ccc(OC2CCN(C3CC3)CC2)cc1 [Compound 2, N-[4-(1-Cyclopropylpiperidin-4-yloxy)phenyl]-2-(morpholin-4-yl)acetamide tartrate], the “peak acetylcholine levels, %” value [2, 5] is reported as 3057±468 % of pre-dose levels, the “mean AUC of percent change … to donepezil alone” value [2] is reported as “significantly higher” and the Ki [3] is reported as 0.0199 µM.

In the case of CC(C)N1CCC(Oc2ccc(NC(=O)CN3CCOCC3)cc2)CC1 [Compound 3, N-[4-(1-Isopropylpiperidin-4-yloxy)phenyl]-2-(morpholin-4-yl)acetamide], the “peak acetylcholine levels, %” value [2, 5] is reported as 1874±184 % of pre-dose levels, the “mean AUC of percent change … to donepezil alone” value [2] is reported as “significantly higher” and the Ki ([3]; recombinant human cDNA expressed in CHO cells, [3H] R-α-methylhistamine 3.0 nM, read-out: Human histamie-3 receptor Ki) is reported as 0.0083 µM.

In the case of COc1cc2c(cc1OC)C(=O)C(CC1CCN(Cc3ccccc3)CC1)C2 (centres unmarked) [donepezil, reference compound], the “effect on hippocampal theta power” value ([1]; donepezil alone, 0.3 mg/kg, i.v.) is reported as “increase in hippocampal theta power”.

For CCN(C)C(=O)Oc1cccc([C@H](C)N(C)C)c1 [rivastigmine, reference compound], the “maximum cortical acetylcholine levels, % of basal levels” value ([2]; rivastigmine alone, 0.5 mg/kg, s.c., mPFC dialysate) was 612±104 % of basal levels.
